Data from patent US20120272343A1, “STROMAL INTERACTING MOLECULE KNOCKOUT MOUSE AND USES THEREOF” (IMMUNE DISEASE INSTITUTE, INC., priority 2007, published 2012).

System: CRAC current (ICRAC)
Test: Whole cell patch-clamp recordings of CRAC current in differentiated CD4+ T cells
Type: cell-based, mouse
Conditions: for increase in current amplitude following 2-APB application: thapsigargin-pretreated, 2-APB 40 μM, step to −100 mV
Procedure: CD4^+ T cells were cultured in non-polarizing conditions and harvested at day 5. Patch-clamp recordings were performed using an Axopatch 200 amplifier (Axon Instruments) interfaced to an ITC-18 input/output board (Instrutech) and an iMac G5 computer. Currents were filtered at 1 kHz with a 4-pole Bessel filter and sampled at 5 kHz. Recording electrodes were pulled from 100-μl pipettes, coated with Sylgard, and fire-polished to a final resistance of 2-5 MΩ. Stimulation and data acquisition and analysis were performed using in-house routines developed on the Igor Pro platform (Wavemetrics). All data were corrected for the liquid junction potential of the pipette solution relative to Ringer's in the bath (10 mV) and for leak currents collected in 20 mM [Ca^2+]o+25 μM La^3+. The standard extracellular Ringer solution contained (in mM): 130 NaCl, 4.5 KCl, 20 CaCl2, 1 MgCl2, 10 D-glucose, and 5 Na-Hepes (pH 7.4). In some experiments, 2 mM CaCl2 was used in the standard extracellular solution and the NaCl concentration was raised to 150 mM. The standard divalent-free (DVF) Ringer solutions contained (in mM) 150 NaCl, 10 mM tetraacetic acid, 1 mM EDTA and 10 mM Hepes (pH 7.4). 25 nM charybdotoxin (Sigma) was added to all extracellular solutions to eliminate contamination from Kv1.3 channels. […] Averaged results are presented as the mean value±s.e.m. Curve fitting was done by least-squares methods using built-in functions in Igor Pro 5.0. The permeability of Cs^+ relative to that of Na^+ was calculated from the bionic reversal potential using the relation:

SMILES | block of Na+ CRAC currents (wild-type mouse T cells, 20 μM Ca2+) | increase in current amplitude following 2-APB application (STIM2-deficient T cells, n=5) | increase in current amplitude following 2-APB application (control T cells, n=4)
[Ca+2] [Ca^2+] | ~50% | – | –
NCCOB(c1ccccc1)c1ccccc1 [2-APB, 2-Aminoethoxydiphenyl borate] | – | 30±7% | 26±6%
